Source: US20160220587A1, “VITAMIN D COMPLEXES WITH DE-VDBP AND AN UNSATURATED FATTY ACID, AND THEIR USE IN THERAPY” (priority 2013, published 2016)
Where no end group is shown, it is not given here.

Assays:
VDBP = biological target: T1, VDBP (Homo sapiens, UniProt P02774); settings: relative to vitamin D3; Am J Kidney Dis, 1998; 32:S25-39; cited from earlier work
T1 sequence (P02774 17-474): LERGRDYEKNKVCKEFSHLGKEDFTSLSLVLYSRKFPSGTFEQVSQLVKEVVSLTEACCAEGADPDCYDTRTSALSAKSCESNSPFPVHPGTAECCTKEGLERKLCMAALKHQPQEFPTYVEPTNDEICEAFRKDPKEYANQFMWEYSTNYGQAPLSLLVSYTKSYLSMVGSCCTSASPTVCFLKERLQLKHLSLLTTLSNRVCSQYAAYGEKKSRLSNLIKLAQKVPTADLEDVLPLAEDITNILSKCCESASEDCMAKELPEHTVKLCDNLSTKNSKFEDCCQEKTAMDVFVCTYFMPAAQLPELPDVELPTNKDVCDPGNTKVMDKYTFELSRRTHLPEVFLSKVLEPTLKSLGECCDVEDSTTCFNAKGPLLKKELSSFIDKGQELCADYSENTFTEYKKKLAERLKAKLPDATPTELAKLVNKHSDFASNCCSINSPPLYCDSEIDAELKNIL

[1] = tested on: MCF-7 human breast cancer cell; test: MCF-7 cell proliferation (Calbiochem Rapid Cell Proliferation Kit); format: cell-based; settings: for Absorbance units (×10^3), cell proliferation: control (no addition) 450 ± 21
Method: The biological activity of the molecules and the multimolecular complexes described in the preceding sections was tested in an in vitro system (MCF-7 human breast cancer cell cultures) that is routinely used to assess the biological activity of vitamin D3 and of the other components of the vitamin D axis (Evid Based Complement Alternat Med. 2012; 2012:310872. Oncol Rep. 2012 December; 28(6):2131-7. Anticancer Res. 2012 March; 32(3):739-46). Human breast carcinoma cells MCF-7 were challenged with different concentration of vitamin D3, de-VDBP, and [vitamin D3/de-VDBP/oleic acid]. […] The same level of inhibition, however, could be achieved with 1000 fold less vitamin D3 when it was complexed with de-VDBP and oleic acid.

In the case of `C=C1/C(=C\C=C2/CCC[C@]3(C)[C@@H]([C@H](C)OCCC(C)(C)O)CC[C@@H]23)C[C@@H](O)C[C@@H]1O` [22-oxacalcitriol], the VDBP affinity (VDBP) is listed as “low”.

In the case of `[2H]C([2H])=C1/C(=C([2H])\C=C2/CCC[C@]3(C)[C@@H]([C@H](C)CCCC(C)(C)O)CC[C@@H]23)C[C@@H](O)C[C@@H]1O` [Vitamin D3, 1α,25-Dihydroxyvitamin D3 (6,19,19-d3)], the “Absorbance units (×10^3), cell proliferation” value (from here on “Absorbance units”) ([1]; Vitamin D3 1 nM) is reported as 425 ± 10 Absorbance units (×10^3), the “Absorbance units” value ([1]; Vitamin D3 1 uM) is reported as 55 ± 10 Absorbance units (×10^3) and the “Concentration giving maximal inhibition of MCF-7 proliferation” value ([1]; very high, non-physiological concentration) is reported as 1 µM.

In the case of `C=C1/C(=C\C=C2/CCC[C@]3(C)[C@@H]([C@H](C)/C=C/[C@@H](O)C4CC4)CC[C@@H]23)C[C@@H](O)C[C@@H]1O` [calcipotriene], the VDBP affinity (VDBP) is given as “low”.

With “de-VDBP: vitamin D binding protein de-glycosylated at position Thr 420 by sequential removal of sialic acid and galactose (DSTTCFNAKGPLLKKELSSFIDKGQELC; cysteine pairing not given here; also: de-glycosylated at Thr 420 by removal of sialic acid and galactose; listed as Homo sapiens)” the “Absorbance units” value ([1]; de-VDBP 1 ng/ml) was 395 ± 37 Absorbance units (×10^3).

B1: [Vitamin D3 1 nM/de-VDBP 1 ng/ml/oleic acid 1/1]: trimeric complex of vitamin D3 and oleic acid bound to de-VDBP via hydrophobic interactions (protein, UniProt P02774 17-474, looked up)
Vitamin D-binding protein: LERGRDYEKNKVCKEFSHLGKEDFTSLSLVLYSRKFPSGTFEQVSQLVKEVVSLTEACCAEGADPDCYDTRTSALSAKSCESNSPFPVHPGTAECCTKEGLERKLCMAALKHQPQEFPTYVEPTNDEICEAFRKDPKEYANQFMWEYSTNYGQAPLSLLVSYTKSYLSMVGSCCTSASPTVCFLKERLQLKHLSLLTTLSNRVCSQYAAYGEKKSRLSNLIKLAQKVPTADLEDVLPLAEDITNILSKCCESASEDCMAKELPEHTVKLCDNLSTKNSKFEDCCQEKTAMDVFVCTYFMPAAQLPELPDVELPTNKDVCDPGNTKVMDKYTFELSRRTHLPEVFLSKVLEPTLKSLGECCDVEDSTTCFNAKGPLLKKELSSFIDKGQELCADYSENTFTEYKKKLAERLKAKLPDATPTELAKLVNKHSDFASNCCSINSPPLYCDSEIDAELKNIL
modifications: deglycosylated; vitamin D3 and oleic acid bound
With B1 the “Absorbance units” value ([1]; Vitamin D3 1 nM / de-VDBP 1 ng/ml / oleic acid ratio 1/1) was 55 ± 9 Absorbance units (×10^3) and the “Fold less vitamin D3 needed for the same level of inhibition” value ([1]; versus 1 uM vitamin D3 alone) was 1000 fold.
